Test [1] has as its target T1, TAS2R14 (Homo sapiens, UniProt Q9NYV8).
T1 sequence (Q9NYV8 1-317): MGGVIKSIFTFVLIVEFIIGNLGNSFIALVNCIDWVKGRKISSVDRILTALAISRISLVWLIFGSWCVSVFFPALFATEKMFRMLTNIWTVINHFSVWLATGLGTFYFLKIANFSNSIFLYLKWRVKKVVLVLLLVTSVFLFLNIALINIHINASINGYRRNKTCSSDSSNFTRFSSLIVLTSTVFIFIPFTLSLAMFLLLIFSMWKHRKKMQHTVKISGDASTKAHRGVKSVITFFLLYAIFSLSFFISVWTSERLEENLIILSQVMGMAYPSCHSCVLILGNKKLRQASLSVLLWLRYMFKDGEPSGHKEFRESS
In words: IP-One HTRF IP1 accumulation, HEK293T with Galpha-qi5. The test is classed as cell-based. Background: TR-FRET usually uses a lanthanide donor and a delayed reading to cut background.

Test [2] concerns the target T1, TAS2R14. The test is described as above. The test is classed as cell-based. The following applies: antagonist mode, […] min pre-incubation, against […] flufenamic acid, […] °C.
Test [3] deals with T1, TAS2R14. The experiment in a line: cell-based. To be noted: HEK-293T, read-out: Emax[%flu acid]. Also noted: species or system HEK293T.
The target of test [4] is T1, TAS2R14. The experiment in a line: cell-based. Also noted: species or system HEK293T.

Where two headings read alike, the source gives them in different places.

In the case of `O=C(Nc1ccccc1C(=O)O)c1ccc(OC(F)(F)F)cc1` [LF1], the IC50 (usually the concentration that inhibits the measured activity by half) against TAS2R14 [1] is 6.8 ± 3.2 µM.
Same read-out and setting: the result for `Cc1[nH]nc(C(=O)Nc2ccc(C3CCC(F)(F)CC3)cc2)c1C(=O)O` [LF14] reads 22 ± 16 µM; that for `O=C(c1cc(O)cc(C(F)(F)F)c1)N1CC(c2ccccc2)C1CO` (centres unmarked) [LF22], 7.2 ± 3 µM.
With `O=C(O)c1cc(I)ccc1Nc1cccc(C(F)(F)F)c1` [LW118], the IC50 entry on TAS2R14 [2] is on record as “A derivative of flufenamic acid (LW118)”.
With `NS(=O)(=O)c1ccccc1Nc1cccc(OCc2ccccc2)c1` [lw19a], on TAS2R14 [3], the Emax – broadly, the size of the effect at its maximum, as opposed to the concentration needed – was 100%. At TAS2R14 [4], the concentration giving a half-maximal response (EC50) (commonly the concentration needed to bring the measured effect to its halfway point) was 65 ± 25 µM.
Regarding `COC(=O)c1ccccc1Nc1cccc(C(F)(F)F)c1` [lw50], the Emax at TAS2R14 [3] came out at 47 ± 23%. The molecule further registered an EC50 on TAS2R14 [4] of 5.3 ± 3.2 µM.
For `O=C(O)c1ccccc1Nc1cccc(OC(F)(F)F)c1` [lw057], in that order: 101 ± 5% and 0.25 ± 0.06 µM.
In the same order, the values of `FC(F)(F)Oc1cccc(Nc2ccccc2-c2nnn[nH]2)c1` [lw070] are 72 ± 13% and 0.19 ± 0.07 µM.
For `FS(F)(F)(F)(F)c1cccc(Nc2ccccc2-c2nnn[nH]2)c1` [lw071], at TAS2R14 [3], the maximal response (Emax) amounted to 48 ± 3%. In addition, at TAS2R14 [4], the response was half-maximal at 0.23 ± 0.09 µM (EC50).
For `Clc1cccc(Nc2ccccc2-c2nnn[nH]2)c1` [lw072], in that order: 67 ± 6% and 0.17 ± 0.07 µM.
For `O=C(O)c1ccccc1Nc1ccc(Cl)c(C(F)(F)F)c1` [lw076], in that order: 67 ± 9% and 0.2 ± 0.05 µM.
As for `COc1cc(Nc2ccccc2C(=O)O)cc(C(F)(F)F)c1` [lw077], the Emax at TAS2R14 [3] stood at 87 ± 5%. Moreover, on TAS2R14 [4], the midpoint of the response, the EC50, lay at 0.2 ± 0.06 µM.
For the molecule `FC(F)Oc1cccc(Nc2ccccc2-c2nnn[nH]2)c1` [lw083], the Emax on TAS2R14 [3] was 77 ± 5%. On TAS2R14 [4], the EC50 came to 0.2 ± 0.02 µM.
On to `FC(F)(F)c1cc(Nc2ccccc2-c2nnn[nH]2)ccc1Cl` [lw084], for which the Emax on TAS2R14 [3] stood at 59 ± 1%. At TAS2R14 [4], this molecule registered an EC50 of 0.19 ± 0.02 µM.
In the case of `COc1cc(Nc2ccccc2-c2nnn[nH]2)cc(C(F)(F)F)c1` [lw085], the Emax on TAS2R14 [3] came out at 98 ± 3%. For the same molecule, the EC50 at TAS2R14 [4] turned out to be 0.08 ± 0.02 µM.
As to `Cc1c(Nc2ccccc2-c2nnn[nH]2)cccc1C(F)(F)F` [lw086], the Emax at TAS2R14 [3] is 70 ± 4%. The molecule further had a concentration for a half-maximal effect (EC50) on TAS2R14 [4] of 0.29 ± 0.05 µM.
For `O=C(O)c1ccccc1Nc1ccc(N2CCOCC2)c(C(F)(F)F)c1` [lw101], in that order: 44 ± 5% and 2 ± 0.49 µM.
In the same order, the values of `O=C(O)c1ccccc1Nc1cc(OC2CC2)cc(C(F)(F)F)c1` [lw103] are 64 ± 3% and 0.31 ± 0.05 µM.
In the same order, the values of `O=C1COc2c(cc(C(F)(F)F)cc2Nc2ccccc2C(=O)O)N1` [lw104] are 74 ± 8% and 1.8 ± 0.18 µM.
For `O=C(O)c1ccccc1Nc1cc(OCc2ccccc2)cc(C(F)(F)F)c1` [lw105], on TAS2R14 [3], the Emax worked out at 66 ± 14%. On TAS2R14 [4], this molecule gave a concentration for a half-maximal effect (EC50) of 1.7 ± 0.35 µM.
In the same order, the values of `Cc1ccc(C(F)(F)F)cc1Nc1ccccc1-c1nnn[nH]1` [lw113] are 90 ± 5% and 0.31 ± 0.092 µM.
In the same order, the values of `FC(F)(F)c1cc(Nc2ccccc2-c2nnn[nH]2)ccc1N1CCOCC1` [lw114] are 50 ± 7% and 0.19 ± 0.02 µM.
For `O=C(O)c1ccccc1Nc1cc([N+](=O)O)cc(C(F)(F)F)c1` [lw119], in that order: 67 ± 8% and 0.19 ± 0.05 µM.
With `Cc1cn(-c2cc(Nc3ccccc3C(=O)O)cc(C(F)(F)F)c2)cn1` [lw122], at TAS2R14 [3], the Emax came out at 51 ± 11%. At TAS2R14 [4], this molecule returned an EC50 of 3.7 ± 1.2 µM.
For `COc1cc(Nc2ccc(Cl)cc2-c2nnn[nH]2)cc(C(F)(F)F)c1` [lw128], in that order: 26 ± 4% and 0.58 ± 0.18 µM.
With `O=[N+](O)c1cc(Nc2ccccc2-c2nnn[nH]2)cc(C(F)(F)F)c1` [lw130], the Emax on TAS2R14 [3] came out at 80 ± 8%. The EC50 on TAS2R14 [4] was 0.73 ± 0.15 µM.
For `COC(=O)c1cc(Nc2ccccc2C(=O)O)cc(C(F)(F)F)c1` [lw153], in that order: 73 ± 5% and 0.78 ± 0.25 µM.
In the same order, the values of `NC(=O)c1cc(Nc2ccccc2C(=O)O)cc(C(F)(F)F)c1` [lw154] are 127 ± 13% and 7.2 ± 1 µM.
On to `O=C(O)c1ccccc1Nc1cc(N2CCOCC2)cc(C(F)(F)F)c1` [lw167], for which the Emax at TAS2R14 [3] came out at 41 ± 18%. Further, the EC50 at TAS2R14 [4] was 0.7 ± 0.4 µM.
In the same order, the values of `COC(=O)c1cc(Nc2ccccc2-c2nnn[nH]2)cc(C(F)(F)F)c1` [lw169] are 97 ± 4% and 0.64 ± 0.14 µM.
Turning to `NC(=O)c1cc(Nc2ccccc2-c2nnn[nH]2)cc(C(F)(F)F)c1` [lw183], at TAS2R14 [3], the Emax was determined as 86 ± 8%. This molecule also had an EC50 on TAS2R14 [4] of 6 ± 1.3 µM.
For `FC(F)(F)c1cc(Nc2ccccc2-c2nnn[nH]2)cc(OC2CC2)c1` [lw190], in that order: 68 ± 4% and 0.43 ± 0.075 µM.
For `Cc1cc(Nc2ccccc2-c2nnn[nH]2)cc(C(F)(F)F)c1` [lw201], in that order: 81 ± 7% and 0.59 ± 0.25 µM.
As to `O=C(O)c1cc([N+](=O)[O-])ccc1Nc1cccc(C(F)(F)F)c1` [lw205], the Emax on TAS2R14 [3] worked out at 82 ± 4%. Also, a half-maximal response on TAS2R14 [4] (EC50) required 0.27 ± 0.075 µM.
On to `NC(=O)c1ccccc1Nc1cccc(C(F)(F)F)c1` [lw208], for which the maximum response (Emax) on TAS2R14 [3] amounted to 34 ± 4%. This molecule yielded an EC50 at TAS2R14 [4] of 11 ± 0.75 µM.
For `O=Cc1ccc(Cl)cc1Nc1ccccc1C(=O)O` [lw231], in that order: 97 ± 7% and 3.3 ± 0.46 µM.
On to `COC(=O)c1cccc(C(=O)O)c1Nc1cccc(C(F)(F)F)c1` [lw253], for which, at TAS2R14 [3], the Emax amounted to 42 ± 4%. The same molecule showed an EC50 at TAS2R14 [4] of 0.48 ± 0.11 µM.
For `O=C(O)c1ccccc1Nc1cc(C#CC2CC2)cc(C(F)(F)F)c1` [lw271], in that order: 57 ± 7% and 0.46 ± 0.079 µM.
Consider `CCCCc1cc2cccc(C(=O)O)c2n1-c1cccc(C(F)(F)F)c1` [lw273], for which the maximal effect (Emax) at TAS2R14 [3] amounted to 62 ± 6%. The molecule also registered an EC50 on TAS2R14 [4] of 8.3 ± 2.4 µM.
In the same order, the values of `Oc1cc(-c2ccccc2Nc2cccc(C(F)(F)F)c2)on1` [lw306] are 38 ± 4% and 3.1 ± 1.8 µM.
In the same order, the values of `CCCCC#Cc1ccc(Nc2ccccc2C(=O)O)cc1C(F)(F)F` [lw308] are 87 ± 7% and 4.4 ± 1.6 µM.
For the molecule `CC#Cc1ccc(Nc2ccccc2C(=O)O)cc1C(F)(F)F` [lw310], the Emax on TAS2R14 [3] was found to be 89 ± 3%. Further, at TAS2R14 [4], it took 0.38 ± 0.052 µM to reach a half-maximal effect (EC50).
For `CCCCCNC(=O)c1ccc(Nc2ccccc2C(=O)O)cc1C(F)(F)F` [lw317], in that order: 66 ± 17% and 30 ± 19 µM.
For `FC(F)(F)c1cc(-c2ccccc2)nc(Nc2ccccc2-c2nnn[nH]2)n1` [lw341], in that order: 118 ± 16% and 1.1 ± 0.32 µM.
In the same order, the values of `COc1ccc(Nc2ccccc2C(=O)O)cc1OCc1ccc(Cl)cc1` [lwbk19] are 70 ± 11% and 1.2 ± 0.3 µM.
On to `COc1ccc(Nc2ccccc2C(=O)O)cc1OCc1cccc(F)c1` [lwbk20], for which, at TAS2R14 [3], the Emax is 89 ± 4%. In addition, the half-maximal effective concentration (EC50) at TAS2R14 [4] worked out at 1.4 ± 0.5 µM.
For `COc1cccc(COc2cc(Nc3ccccc3C(=O)O)ccc2OC)c1` [lwbk21], in that order: 88 ± 10% and 2.1 ± 1.1 µM.
On to `O=C(O)c1ccccc1Nc1cc(C(F)(F)F)cc(C(F)(F)F)c1Cl` [lwjk05], for which the maximal response (Emax) at TAS2R14 [3] was 84 ± 1%. The molecule further registered an EC50 at TAS2R14 [4] of 0.15 ± 0.02 µM.
In the same order, the values of `FC(F)(F)c1cc(Nc2ccccc2-c2nnn[nH]2)c(Cl)c(C(F)(F)F)c1` [lwjk06] are 97 ± 8% and 0.17 ± 0.02 µM.
In the same order, the values of `Cc1ccc(Nc2ccccc2C(=O)O)cc1OCc1ccc(Cl)cc1` [lwlb17] are 70 ± 10% and 1.3 ± 0.18 µM.
In the same order, the values of `COc1cccc(COc2cc(Nc3ccccc3C(=O)O)ccc2C)c1` [lwlb18] are 54 ± 14% and 1.5 ± 0.5 µM.
With `Cc1ccc(Nc2ccccc2C(=O)O)cc1OCc1cccc(F)c1` [lwlb19], the Emax at TAS2R14 [3] turned out to be 70 ± 6%. In addition, on TAS2R14 [4], a half-maximal effect (EC50) was put at 1.9 ± 0.94 µM.
For the molecule `O=C(O)c1ccccc1Nc1cccc(OCc2ccc(Cl)cc2)c1` [lwmr04], at TAS2R14 [3], the Emax turned out to be 64 ± 2%. Further, on TAS2R14 [4], the response was half-maximal at 1.1 ± 0.18 µM (EC50).
As to `COc1cccc(COc2cccc(Nc3ccccc3C(=O)O)c2)c1` [lwmr05], the Emax on TAS2R14 [3] was determined as 70 ± 6%. It took 0.74 ± 0.12 µM to reach a half-maximal effect on TAS2R14 [4] (EC50).
With `O=C(O)c1ccccc1Nc1cccc(OCc2cccc(F)c2)c1` [lwmr06], the Emax at TAS2R14 [3] worked out at 71 ± 4%. At TAS2R14 [4], this molecule had an EC50 of 0.42 ± 0.05 µM.
As for `FC(F)(F)c1cccc(Nc2ccccc2-c2cnoc2)c1` [lwph005], the maximum response (Emax) at TAS2R14 [3] stood at 50 ± 1%. The molecule further gave an EC50 at TAS2R14 [4] of 12 ± 8.9 µM.
Take `FC(F)(F)c1cccc(Nc2ccccc2-c2cnn[nH]2)c1` [lwtp009]: the maximum response (Emax) on TAS2R14 [3] amounted to 48 ± 1%. The molecule also showed an EC50 on TAS2R14 [4] of 12 ± 1.4 µM.
